Reference: patent publication US20260034112A1, “MULTI-CYCLIC IRAK1 AND IRAK4 INHIBITING COMPOUNDS AND USES THEREOF” (CHILDREN'S HOSPITAL MEDICAL CENTER, priority 2022, published 2026)

System: THP1 cells
Assay type: cell-based, human
Conditions: CA-4948 vs DMSO in THP1 cells

With `Cc1cc(-c2nc(C(=O)Nc3cc4oc(N5CCOCC5)nc4nc3N3CC[C@@H](O)C3)co2)ccn1` [CA-4948, emavusertib] the “Log(FC) of gene FAM57B” value was 0.9462, the “Log(FC) of gene FAM229A” value was 0.8452 and the “Log(FC) of gene FBXO15” value was −0.5977. For the same molecule, the “Log(FC) of gene FCRLB” value was 1.162, the “Log(FC) of gene FFAR4” value was 0.5911 and the “Log(FC) of gene FLJ31945” value was −0.9544. The “Log(FC) of gene FLJ45513” value was 1.668, the “Log(FC) of gene GALR2” value was 0.6354 and the “Log(FC) of gene GAS6-AS1” value was 0.6025. For the same molecule, the “Log(FC) of gene GDPD3” value was 0.695, the “Log(FC) of gene GIPR” value was 0.6177 and the “Log(FC) of gene GJC2” value was 0.7031. For the same molecule, the “Log(FC) of gene GNMT” value was 1.408, the “Log(FC) of gene GP9” value was 0.8031 and the “Log(FC) of gene GPR3” value was −0.5921. For the same molecule, the “Log(FC) of gene GPR113” value was 0.7578, the “Log(FC) of gene GPR135” value was 0.8057 and the “Log(FC) of gene GPR158” value was −0.6058. The “Log(FC) of gene GSDMB” value was 0.7698, the “Log(FC) of gene GSTM2” value was 0.7484 and the “Log(FC) of gene GUCA1B” value was 1.348. For the same molecule, the “Log(FC) of gene HHLA3” value was 0.7796, the “Log(FC) of gene HLA-F-AS1” value was 0.5961 and the “Log(FC) of gene HPD” value was 0.6253. The “Log(FC) of gene HSPA7” value was 0.9538, the “Log(FC) of gene ID3” value was 0.6893 and the “Log(FC) of gene IGFBP3” value was −0.9606. For the same molecule, the “Log(FC) of gene IGFBP7-AS1” value was 0.9516, the “Log(FC) of gene IL8” value was −0.7139 and the “Log(FC) of gene IL9R” value was 1.002. For the same molecule, the “Log(FC) of gene IL10RB-AS1” value was 0.6103, the “Log(FC) of gene IPO9-AS1” value was 0.7271 and the “Log(FC) of gene ITIH4” value was 1.233. For the same molecule, the “Log(FC) of gene KCND1” value was 0.5935, the “Log(FC) of gene KCNIP3” value was −0.6151 and the “Log(FC) of gene KIAA1324” value was 0.7793. For the same molecule, the “Log(FC) of gene KRBA2” value was −0.8123, the “Log(FC) of gene LAMC3” value was 0.6855 and the “Log(FC) of gene LDLRAD4” value was 0.7569. The “Log(FC) of gene LHPP” value was 1.078, the “Log(FC) of gene LINC00337” value was 0.6329 and the “Log(FC) of gene LINC00641” value was 0.8241. For the same molecule, the “Log(FC) of gene LINC00893” value was 0.737, the “Log(FC) of gene LINC00959” value was 0.7922 and the “Log(FC) of gene LOC155060” value was 0.6346. For the same molecule, the “Log(FC) of gene LOC284889” value was 0.8366, the “Log(FC) of gene LOC644961” value was 0.6222 and the “Log(FC) of gene LOC728715” value was 0.6401. For the same molecule, the “Log(FC) of gene LOC728752” value was 0.7225, the “Log(FC) of gene LOC100128494” value was 0.9913 and the “Log(FC) of gene LOC100129924” value was 1.019. For the same molecule, the “Log(FC) of gene LOC100130698” value was −1.064, the “Log(FC) of gene LOC100130705” value was 0.845 and the “Log(FC) of gene LOC100133091” value was 0.5851. For the same molecule, the “Log(FC) of gene LOC100134868” value was 0.8444, the “Log(FC) of gene LOC100288069” value was 0.6928 and the “Log(FC) of gene LOC100288102” value was −0.6006. For the same molecule, the “Log(FC) of gene LOC100505771” value was 0.7704, the “Log(FC) of gene LOC100506083” value was 0.8144 and the “Log(FC) of gene LOC100506100” value was 0.8985. For the same molecule, the “Log(FC) of gene LOC100506472” value was 0.7649, the “Log(FC) of gene LOC100506518” value was 0.7779 and the “Log(FC) of gene LOC100506548” value was 1.108. The “Log(FC) of gene LOC100507373” value was 0.7784, the “Log(FC) of gene LOC100507424” value was 1.26 and the “Log(FC) of gene LOC100507462” value was 0.6976. For the same molecule, the “Log(FC) of gene LOC101927085” value was −0.6948, the “Log(FC) of gene LOC101927119” value was 0.6408 and the “Log(FC) of gene LOC101927895” value was 0.6379. For the same molecule, the “Log(FC) of gene LOC101927910” value was 1.281, the “Log(FC) of gene LOC101927974” value was 0.7679 and the “Log(FC) of gene LOC101928038” value was 0.8781. The “Log(FC) of gene LOC101928055” value was 0.8595, the “Log(FC) of gene LOC101928710” value was 0.5901 and the “Log(FC) of gene LOC101928830” value was 0.7631. For the same molecule, the “Log(FC) of gene LOC101929046” value was 0.6794, the “Log(FC) of gene LOC101929054” value was 0.589 and the “Log(FC) of gene LOC101929112” value was 0.5992.
